{"source": "patent US12281149B2", "about": "“Modulators of G-protein coupled receptors” (priority 2021, dated 2025)", "key": {"[1]": {"molecular_target": "T1, GIP receptor (Homo sapiens, UniProt P48546)", "T1 sequence (P48546 22-466)": "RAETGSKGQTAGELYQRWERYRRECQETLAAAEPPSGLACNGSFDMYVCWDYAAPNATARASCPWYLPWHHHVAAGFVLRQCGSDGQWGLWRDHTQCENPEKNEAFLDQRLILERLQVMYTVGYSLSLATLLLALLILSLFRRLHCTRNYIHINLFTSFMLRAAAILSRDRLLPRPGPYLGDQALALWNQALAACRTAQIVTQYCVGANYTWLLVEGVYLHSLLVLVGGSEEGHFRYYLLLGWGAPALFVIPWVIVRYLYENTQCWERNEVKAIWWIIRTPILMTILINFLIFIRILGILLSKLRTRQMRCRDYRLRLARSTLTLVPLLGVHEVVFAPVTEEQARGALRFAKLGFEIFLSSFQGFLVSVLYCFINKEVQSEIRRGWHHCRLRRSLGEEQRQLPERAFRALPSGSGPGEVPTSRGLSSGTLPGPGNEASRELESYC", "assay": "HitHunter cAMP assay, GIP receptor", "type": "cell-based", "conditions": "read-out: Emax GIP-1R"}, "[2]": {"molecular_target": "GLP-1 receptor (Homo sapiens, UniProt P43220)", "sequence (P43220 24-463)": "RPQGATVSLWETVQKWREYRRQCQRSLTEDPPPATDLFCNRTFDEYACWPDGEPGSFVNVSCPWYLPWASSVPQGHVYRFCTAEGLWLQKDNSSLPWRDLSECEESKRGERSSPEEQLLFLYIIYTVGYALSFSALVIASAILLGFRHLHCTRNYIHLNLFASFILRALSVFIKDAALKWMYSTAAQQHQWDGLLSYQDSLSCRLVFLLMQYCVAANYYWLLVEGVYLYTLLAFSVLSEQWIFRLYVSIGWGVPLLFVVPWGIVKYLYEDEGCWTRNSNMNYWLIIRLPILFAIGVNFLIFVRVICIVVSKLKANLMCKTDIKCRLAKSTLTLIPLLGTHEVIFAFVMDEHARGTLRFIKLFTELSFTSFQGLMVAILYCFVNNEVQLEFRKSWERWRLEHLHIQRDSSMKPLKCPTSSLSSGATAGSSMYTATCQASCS", "assay": "HitHunter cAMP assay, GLP-1 receptor", "type": "cell-based", "conditions": "read-out: Emax GLP-1R"}, "[3]": {"conditions": "CHO cells, cAMP, normalized to maximum signal from GIP (high) and DMSO (low)"}, "[4]": {"conditions": "CHO cells, cAMP, normalized to maximum signal from GLP-1 (high) and DMSO (low)"}}, "note": "Where two headings read alike, the source gives them in different places. *1 amine or outer side, *2 acyl side, *3 side chain or, on linkers, in order; H or OH if unused. Where a SMILES comes first, the peptide text is derived from it. Side-chain parts run from the residue outwards. [ ]: non-standard residue; d: D form. The star is where a group is joined. Isobutyryl(2-(3-CN-5-F-Ph)) = CC(C)(C(=O)*)c1cc(F)cc(C#N)c1; C20 diacid = O=C(O)CCCCCCCCCCCCCCCCCCC(=O)*; γGlu = O=C(O)[C@H](CCC(=O)[*:2])N[*:1]; 2Thenoyl(5-Cl) = O=C(c1ccc(Cl)s1)*; X27 = O=C1CC(C(=O)*)(c2ccccc2)CN1; X40 = CC(C)(C(=O)*)n1cc(Cl)cn1; X24 = O=C(C1(c2cccnc2)CCC1)*; X66 = NC(=O)C1(C(=O)*)CCC1; Ac4c = NC1(C(=O)O)CCC1; AEEA = NCCOCCOCC(=O)O; Aib = CC(C)(N)C(=O)O; GABA = NCCCC(=O)O; βAla = NCCC(=O)O"}
{"smiles": "CC[C@H](C)[C@H](NC(=O)[C@H](CC(C)C)NC(=O)[C@H](Cc1c[nH]c2ccccc12)NC(=O)[C@H](CCC(N)=O)NC(=O)[C@@H](NC(=O)[C@H](Cc1ccccc1)NC(=O)[C@H](C)NC(=O)[C@H](CCCCNC(=O)COCCOCCNC(=O)COCCOCCNC(=O)CC[C@H](NC(=O)CCCCCCCCCCCCCCCCCCC(=O)O)C(=O)O)NC(=O)[C@H](CCC(N)=O)NC(=O)[C@H](C)NC(=O)[C@@H](NC(=O)[C@H](CCCCN)NC(=O)[C@H](CC(=O)O)NC(=O)[C@H](CC(C)C)NC(=O)C(C)(C)NC(=O)[C@@H](NC(=O)[C@H](CO)NC(=O)[C@H](Cc1ccc(O)cc1)NC(=O)[C@H](CC(=O)O)NC(=O)[C@H](CO)NC(=O)[C@@H](NC(=O)[C@H](Cc1ccccc1)NC(=O)[C@@H](NC(=O)CNC(=O)[C@H](CCC(=O)O)NC(=O)CCNC(=O)C(C)(C)c1cc(F)cc(C#N)c1)[C@@H](C)O)[C@@H](C)O)[C@@H](C)CC)[C@@H](C)CC)C(C)C)C(=O)N[C@@H](C)C(=O)NCC(=O)NCC(=O)N1CCC[C@H]1C(=O)N[C@@H](CO)C(=O)N[C@@H](CO)C(=O)NCC(=O)N[C@@H](C)C(=O)N1CCC[C@H]1C(=O)N1CCC[C@H]1C(=O)N1CCC[C@H]1C(=O)N[C@@H](CO)C(N)=O", "note": "[Compound 254] ({Isobutyryl(2-(3-CN-5-F-Ph))-βAla}-EGTFTSDYSI[Aib]LDKIAQK([AEEA-AEEA-γGlu-C20 diacid])AFVQWLIAGGPSSGAPPPS-NH2; C-terminus assumed)", "values": [{"measurement": "Emax", "setting": "[1]; [3]", "result": 102, "unit": "%"}, {"measurement": "Emax", "setting": "[2]; [4]", "result": 93, "unit": "%"}]}
{"smiles": "CC[C@H](C)[C@H](NC(=O)[C@H](CC(C)C)NC(=O)[C@H](Cc1c[nH]c2ccccc12)NC(=O)[C@H](CCC(N)=O)NC(=O)[C@@H](NC(=O)[C@H](Cc1ccccc1)NC(=O)[C@H](C)NC(=O)[C@H](CCCCNC(=O)COCCOCCNC(=O)COCCOCCNC(=O)CC[C@H](NC(=O)CCCCCCCCCCCCCCCCCCC(=O)O)C(=O)O)NC(=O)[C@H](CCC(N)=O)NC(=O)[C@H](C)NC(=O)[C@@H](NC(=O)[C@H](CCCCN)NC(=O)[C@H](CC(=O)O)NC(=O)[C@H](CC(C)C)NC(=O)C(C)(C)NC(=O)[C@@H](NC(=O)[C@H](CO)NC(=O)[C@H](Cc1ccc(O)cc1)NC(=O)[C@H](CC(=O)O)NC(=O)[C@H](CO)NC(=O)[C@@H](NC(=O)[C@H](Cc1ccccc1)NC(=O)[C@@H](NC(=O)CNC(=O)[C@H](CCC(=O)O)NC(=O)CCCNC(=O)C1(c2cccnc2)CCC1)[C@@H](C)O)[C@@H](C)O)[C@@H](C)CC)[C@@H](C)CC)C(C)C)C(=O)N[C@@H](C)C(=O)NCC(=O)NCC(=O)N1CCC[C@H]1C(=O)N[C@@H](CO)C(=O)N[C@@H](CO)C(=O)NCC(=O)N[C@@H](C)C(=O)N1CCC[C@H]1C(=O)N1CCC[C@H]1C(=O)N1CCC[C@H]1C(=O)N[C@@H](CO)C(N)=O", "note": "[Compound 251] ({X24-GABA}-EGTFTSDYSI[Aib]LDKIAQK([AEEA-AEEA-γGlu-C20 diacid])AFVQWLIAGGPSSGAPPPS-NH2; C-terminus assumed)", "values": [{"measurement": "Emax", "setting": "[1]; [3]", "result": 92, "unit": "%"}, {"measurement": "Emax", "setting": "[2]; [4]", "result": 91, "unit": "%"}]}
{"smiles": "CC[C@H](C)[C@H](NC(=O)[C@H](CC(C)C)NC(=O)[C@H](Cc1c[nH]c2ccccc12)NC(=O)[C@H](CCC(N)=O)NC(=O)[C@@H](NC(=O)[C@H](Cc1ccccc1)NC(=O)[C@H](C)NC(=O)[C@H](CCCCNC(=O)COCCOCCNC(=O)COCCOCCNC(=O)CC[C@H](NC(=O)CCCCCCCCCCCCCCCCCCC(=O)O)C(=O)O)NC(=O)[C@H](CCC(N)=O)NC(=O)[C@H](C)NC(=O)[C@@H](NC(=O)[C@H](CCCCN)NC(=O)[C@H](CC(=O)O)NC(=O)[C@H](CC(C)C)NC(=O)C(C)(C)NC(=O)[C@@H](NC(=O)[C@H](CO)NC(=O)[C@H](Cc1ccc(O)cc1)NC(=O)[C@H](CC(=O)O)NC(=O)[C@H](CO)NC(=O)[C@@H](NC(=O)[C@H](Cc1ccccc1)NC(=O)[C@@H](NC(=O)CNC(=O)[C@H](CCC(=O)O)NC(=O)CCNC(=O)C1(c2ccccc2)CNC(=O)C1)[C@@H](C)O)[C@@H](C)O)[C@@H](C)CC)[C@@H](C)CC)C(C)C)C(=O)N[C@@H](C)C(=O)NCC(=O)NCC(=O)N1CCC[C@H]1C(=O)N[C@@H](CO)C(=O)N[C@@H](CO)C(=O)NCC(=O)N[C@@H](C)C(=O)N1CCC[C@H]1C(=O)N1CCC[C@H]1C(=O)N1CCC[C@H]1C(=O)N[C@@H](CO)C(N)=O", "note": "(stereo partly drawn) [Compound 250] ({X27-βAla}-EGTFTSDYSI[Aib]LDKIAQK([AEEA-AEEA-γGlu-C20 diacid])AFVQWLIAGGPSSGAPPPS-NH2; C-terminus assumed)", "values": [{"measurement": "Emax", "setting": "[1]; [3]", "result": 89, "unit": "%"}, {"measurement": "Emax", "setting": "[2]; [4]", "result": 90, "unit": "%"}]}
{"smiles": "CC[C@H](C)[C@H](NC(=O)[C@H](CC(C)C)NC(=O)[C@H](Cc1c[nH]c2ccccc12)NC(=O)[C@H](CCC(N)=O)NC(=O)[C@@H](NC(=O)[C@H](Cc1ccccc1)NC(=O)[C@H](C)NC(=O)[C@H](CCCCNC(=O)COCCOCCNC(=O)COCCOCCNC(=O)CC[C@H](NC(=O)CCCCCCCCCCCCCCCCCCC(=O)O)C(=O)O)NC(=O)[C@H](CCC(N)=O)NC(=O)[C@H](C)NC(=O)[C@@H](NC(=O)[C@H](CCCCN)NC(=O)[C@H](CC(=O)O)NC(=O)[C@H](CC(C)C)NC(=O)C(C)(C)NC(=O)[C@@H](NC(=O)[C@H](CO)NC(=O)[C@H](Cc1ccc(O)cc1)NC(=O)[C@H](CC(=O)O)NC(=O)[C@H](CO)NC(=O)[C@@H](NC(=O)[C@H](Cc1ccccc1)NC(=O)[C@@H](NC(=O)CNC(=O)[C@H](CCC(=O)O)NC(=O)CCNC(=O)C1(C(N)=O)CCC1)[C@@H](C)O)[C@@H](C)O)[C@@H](C)CC)[C@@H](C)CC)C(C)C)C(=O)N[C@@H](C)C(=O)NCC(=O)NCC(=O)N1CCC[C@H]1C(=O)N[C@@H](CO)C(=O)N[C@@H](CO)C(=O)NCC(=O)N[C@@H](C)C(=O)N1CCC[C@H]1C(=O)N1CCC[C@H]1C(=O)N1CCC[C@H]1C(=O)N[C@@H](CO)C(N)=O", "note": "[Compound 257] ({X66-βAla}-EGTFTSDYSI[Aib]LDKIAQK([AEEA-AEEA-γGlu-C20 diacid])AFVQWLIAGGPSSGAPPPS-NH2; C-terminus assumed)", "values": [{"measurement": "Emax", "setting": "[1]; CHO", "result": 92, "unit": "%"}, {"measurement": "Emax", "setting": "[2]; CHO", "result": 89, "unit": "%"}]}
{"smiles": "CC[C@H](C)[C@H](NC(=O)[C@H](CC(C)C)NC(=O)[C@H](Cc1c[nH]c2ccccc12)NC(=O)[C@H](CCC(N)=O)NC(=O)[C@@H](NC(=O)[C@H](Cc1ccccc1)NC(=O)[C@H](C)NC(=O)[C@H](CCCCNC(=O)COCCOCCNC(=O)COCCOCCNC(=O)CC[C@H](NC(=O)CCCCCCCCCCCCCCCCCCC(=O)O)C(=O)O)NC(=O)[C@H](CCC(N)=O)NC(=O)[C@H](C)NC(=O)[C@@H](NC(=O)[C@H](CCCCN)NC(=O)[C@H](CC(=O)O)NC(=O)[C@H](CC(C)C)NC(=O)C(C)(C)NC(=O)[C@@H](NC(=O)[C@H](CO)NC(=O)[C@H](Cc1ccc(O)cc1)NC(=O)[C@H](CC(=O)O)NC(=O)[C@H](CO)NC(=O)[C@@H](NC(=O)[C@H](Cc1ccccc1)NC(=O)[C@@H](NC(=O)CNC(=O)[C@H](CCC(=O)O)NC(=O)CCCNC(=O)C1(NC(=O)c2ccc(Cl)s2)CCC1)[C@@H](C)O)[C@@H](C)O)[C@@H](C)CC)[C@@H](C)CC)C(C)C)C(=O)N[C@@H](C)C(=O)NCC(=O)NCC(=O)N1CCC[C@H]1C(=O)N[C@@H](CO)C(=O)N[C@@H](CO)C(=O)NCC(=O)N[C@@H](C)C(=O)N1CCC[C@H]1C(=O)N1CCC[C@H]1C(=O)N1CCC[C@H]1C(=O)N[C@@H](CO)C(N)=O", "note": "[Compound 244] ({2Thenoyl(5-Cl)}-[Ac4c][GABA]EGTFTSDYSI[Aib]LDKIAQK([AEEA-AEEA-γGlu-C20 diacid])AFVQWLIAGGPSSGAPPPS-NH2; C-terminus assumed)", "values": [{"measurement": "Emax", "setting": "[1]; [3]", "result": 120, "unit": "%"}, {"measurement": "Emax", "setting": "[2]; [4]", "result": 109, "unit": "%"}]}
{"smiles": "CC[C@H](C)[C@H](NC(=O)[C@H](CC(C)C)NC(=O)[C@H](Cc1c[nH]c2ccccc12)NC(=O)[C@H](CCC(N)=O)NC(=O)[C@@H](NC(=O)[C@H](Cc1ccccc1)NC(=O)[C@H](C)NC(=O)[C@H](CCCCNC(=O)COCCOCCNC(=O)COCCOCCNC(=O)CC[C@H](NC(=O)CCCCCCCCCCCCCCCCCCC(=O)O)C(=O)O)NC(=O)[C@H](CCC(N)=O)NC(=O)[C@H](C)NC(=O)[C@@H](NC(=O)[C@H](CCCCN)NC(=O)[C@H](CC(=O)O)NC(=O)[C@H](CC(C)C)NC(=O)C(C)(C)NC(=O)[C@@H](NC(=O)[C@H](CO)NC(=O)[C@H](Cc1ccc(O)cc1)NC(=O)[C@H](CC(=O)O)NC(=O)[C@H](CO)NC(=O)[C@@H](NC(=O)[C@H](Cc1ccccc1)NC(=O)[C@@H](NC(=O)CNC(=O)[C@H](CCC(=O)O)NC(=O)CCNC(=O)C(C)(C)n1cc(Cl)cn1)[C@@H](C)O)[C@@H](C)O)[C@@H](C)CC)[C@@H](C)CC)C(C)C)C(=O)N[C@@H](C)C(=O)NCC(=O)NCC(=O)N1CCC[C@H]1C(=O)N[C@@H](CO)C(=O)N[C@@H](CO)C(=O)NCC(=O)N[C@@H](C)C(=O)N1CCC[C@H]1C(=O)N1CCC[C@H]1C(=O)N1CCC[C@H]1C(=O)N[C@@H](CO)C(N)=O", "note": "[Compound 247] ({X40-βAla}-EGTFTSDYSI[Aib]LDKIAQK([AEEA-AEEA-γGlu-C20 diacid])AFVQWLIAGGPSSGAPPPS-NH2; C-terminus assumed)", "values": [{"measurement": "Emax", "setting": "[1]; [3]", "result": 105, "unit": "%"}, {"measurement": "Emax", "setting": "[2]; [4]", "result": 101, "unit": "%"}]}
